Key:
bed bugs [1] = assay: Example 1: post-consumption mortality of bed bugs fed on solutions via artificial membrane feeding system; format: in vivo; details: solution of 0.05 grams boric acid and 4.95 milliliters phosphate buffer pH 7.4; within 24 hours
Source text: Boric acid is an insecticidal dust that causes death upon consumption by most insects with chewing mouthparts. Bed bugs have blood-feeding, piercing/sucking mouthparts that limit their ability to pick up and consume the insecticidal dust in its powder form. To determine whether consumption of boric acid kills bed bugs, several mixtures of boric acid and phosphate buffer, DUPONT™ ADVION™ fire ant bait including indoxacarb and phosphate buffer, and just phosphate buffer solutions were made. […] Multiple groups of ten bed bugs fed on the solutions via artificial membrane feeding systems as described above, and post-consumption mortality was recorded. […]

bed bugs [2] = system: bed bugs
Experimental: For the following Examples an artificial membrane feeding station was prepared and used. […] The Parafilm™ was stretched to <5.0 mils thick. The liquid bait identified in the various Examples below was placed in the sealed container.
Each solution was offered to groups of 20 bed bugs via the artificial feeding stations described above. After approximately 60 minutes, the containers of 20 bed bugs were removed from the feeding station and the number that fed to completion was recorded. Post-exposure mortality was recorded at 4 hours, 24 hours and/or 48 hours after exposure to the active solution.

bed bugs [3] = assay: Example 2: bed bug mortality after exposure to solutions of minimum risk (25(b)) pesticides via artificial membrane feeding system; format: in vivo; details: for efficacy against bed bugs: exposed to lower concentrations of the solutions; for level of efficacy against bed bugs relative to the other solutions: within 120 hours of exposure
Experimental: To determine whether consumption of ingredients listed under section 25(b) of the Federal Insecticide, Fungicide, and Rodenticide Act kills bed bugs, several mixtures of salt, citric acid, potassium sorbate, sodium lauryl sulfate (SLS), castor oil, sesame oil, cinnamon oil, garlic oil, citronella oil, lemongrass oil, peppermint oil, cedar oil, clove oil, rosemary oil, thyme oil, geranium oil, geraniol, and flaxseed oil were made. Oil based solutions were dissolved into 2% sodium lauryl sulfate (“SLS”) and water mixtures. Remaining ingredients were dissolved in water. Concentrations of 1%, 5%, and 50% of each solution were made. Control solutions consisted of either human blood or water depending on the test solutions in each experiment. Groups of twenty bed bugs were offered each solution via the artificial membrane feeding system described above for 60 minutes. […] Post-exposure mortality was recorded at 24 hours and 120 hours after exposure to the active solution.

bed bugs [4] = assay: Example 3: feeding and mortality of bed bugs offered varying concentrations of sodium chloride in water; format: in vivo
Source text: To determine optimum concentrations of sodium chloride solutions (for both feeding and mortality), bed bugs were offered the following concentrations sodium chloride diluted in water on a weight percent basis: 0, 0.05, 0.25, 0.5%, 1%, 2%, 3%, 4%, 5%, 6%, 7%, 8%, 9%, 10%, 12%, 14%, 16%, 18%, 20%, 25%, 30%, 35%, 40%, 50%, 60%, 70%, 80%, 90%, and 100%.

OB(O)O [boric acid]
efficacy on bed bugs that consumed the solution (bed bugs [1]): 100% | increase in mortality (bed bugs [2]; 5% boric acid added to the sodium chloride solution): 25-60% | effect on mortality compared to sodium chloride base solutions without boric acid (bed bugs [2]; addition of 5% boric acid): significantly enhanced mortality

[Cl-].[Na+] [sodium chloride]
efficacy against bed bugs (bed bugs [3]): some efficacy | level of efficacy against bed bugs relative to the other solutions (bed bugs [3]): highest observed levels of efficacy | mortality (bed bugs [4]; all sodium chloride solutions up to 70% wt. sodium chloride): some level of mortality | sodium chloride concentration up to which death was recorded (bed bugs [4]; just from bed bugs tasting the solutions): up to 70 weight percent | sodium chloride concentration up to which bed bugs feed to completion or engorge (bed bugs [4]; sodium chloride in water, offered about 60 minutes): up to 5% | highest levels of mortality (bed bugs [4]; solutions containing 6-12% wt. sodium chloride, within 48 hours): up to 70% | sodium chloride concentration up to which bed bugs fully engorge themselves (bed bugs [4]; solutions of sodium chloride and water): up to 5 weight percent

O=C(O)CC(O)(CC(=O)O)C(=O)O [citric acid]
efficacy against bed bugs (bed bugs [3]): some efficacy | level of efficacy against bed bugs relative to the other solutions (bed bugs [3]): highest observed levels of efficacy

CCCCCCCCCCCCOS(=O)(=O)[O-].[Na+] [SLS, sodium lauryl sulfate]
efficacy against bed bugs (bed bugs [3]): some efficacy | level of efficacy against bed bugs relative to the other solutions (bed bugs [3]): highest observed levels of efficacy

CC(C)=CCC/C(C)=C/CO [geraniol oil, geraniol]
efficacy against bed bugs (bed bugs [3]): some efficacy

C/C=C/C=C/C(=O)[O-].[K+] [potassium sorbate]
efficacy (bed bugs [3]; within 120 hours, bed bugs that consumed the solutions, concentrations of 1%, 5%, 50% made): 0%

— patent publication US9295247B2, “Method of using insect bait station” (ECOLAB USA INC., priority 2008, dated 2016)
